This is an account of results in patent publication US8609870B2, “Treating various disorders using TrkB agonists” (Emory University, priority 2008, dated 2013).

The target in assay [1] is T1, TrkB (Homo sapiens, UniProt Q16620).
T1 construct: expressed in transfected cells; host or cells: HEK293
The assay is described as follows: TrkB dimerization assay (GST pull-down, transfected HEK293 cells). The format is cell-based. As to the method:
HEK293 cells transfected with GST-TrkB and HA-TrkA or TrkB were washed once in PBS, and lysed in 1 ml lysis buffer (50 mM Tris, pH 7.4, 150 mM NaCl, 1 mM EDTA, 0.5% Triton X-100, 1.5 mM Na3VO4, 50 mM NaF, 10 mM sodium pyrophosphate, 10 mM sodium β-glycerophosphate, 1 mM phenylmethylsulfonyl fluoride (PMSF), […], […] leupeptin, […] pepstatin A), and centrifuged for 10 minutes at 14,000×g at 4° C. The supernatant was then transferred to a fresh tube and transfected TrkB receptor was pulled down with glutathione beads. The coprecipitated proteins were resolved on SDS-PAGE. The samples were transferred to a nitrocellular membrane, and immunoblotting analysis was performed with a variety of antibodies.
BDNF is known to bind the TrkB receptor and provoke its dimerization (Barbacid, J. Neurobiol., 25:1386-1403, 1994; Klein et al, Cell, 66:395-403, 1991). To explore whether an identified active compound triggers TrkB receptor dimerization, HEK293 cells are cotransfected with GST-TrkB and HA-TrkB or HA-TrkA. The cells then are treated with BDNF or an identified active compound (0.5 μM) for 30 minutes. […]
Target sequence in this assay (Q16620 32-822, species assumed): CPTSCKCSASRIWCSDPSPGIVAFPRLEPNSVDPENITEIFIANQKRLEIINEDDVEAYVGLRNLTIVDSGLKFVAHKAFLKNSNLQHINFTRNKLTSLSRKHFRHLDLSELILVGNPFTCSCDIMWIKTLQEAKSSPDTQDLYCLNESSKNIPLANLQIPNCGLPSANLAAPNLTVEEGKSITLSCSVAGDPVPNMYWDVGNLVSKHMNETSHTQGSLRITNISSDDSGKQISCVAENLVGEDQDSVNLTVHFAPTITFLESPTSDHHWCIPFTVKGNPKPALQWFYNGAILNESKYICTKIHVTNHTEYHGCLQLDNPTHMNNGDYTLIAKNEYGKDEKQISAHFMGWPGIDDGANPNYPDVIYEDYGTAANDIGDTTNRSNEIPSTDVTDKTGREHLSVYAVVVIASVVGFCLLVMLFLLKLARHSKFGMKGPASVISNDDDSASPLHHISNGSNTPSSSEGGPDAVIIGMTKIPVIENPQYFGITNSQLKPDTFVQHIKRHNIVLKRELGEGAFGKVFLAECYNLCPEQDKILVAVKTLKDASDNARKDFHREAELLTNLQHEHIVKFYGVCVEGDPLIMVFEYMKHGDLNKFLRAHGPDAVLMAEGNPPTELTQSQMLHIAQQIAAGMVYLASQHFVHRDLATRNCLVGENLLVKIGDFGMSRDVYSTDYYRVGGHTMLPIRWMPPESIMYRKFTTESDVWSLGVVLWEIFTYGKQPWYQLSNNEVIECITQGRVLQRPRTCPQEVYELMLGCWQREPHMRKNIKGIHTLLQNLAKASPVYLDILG
Target sequence in this assay (Q16620 32-822, species assumed): as above

Assay [2] has as its target T1, TrkB. In words: Tyrosine phosphorylation of TrkB in transfected HEK293 cells. The format is cell-based. An excerpt:
To determine if an identified active compound promotes tyrosine phosphorylation of the other Trk receptors, HEK293 cells are transfected with various Trk receptors, which is followed by treatment with the identified active compound. Treatment with an identified active compound that elicits tyrosine phosphorylation in the TrkB receptor but not in the TrkA or TrkC receptor indicates an active compound.
To determine whether deoxygedunin binds the intra-cellular domain (ICD) or extra-cellular domain (ECD) of the TrkB receptor, ligand binding assays with [^3H]-deoxygedunin were performed. […] The coprecipitated HA-TrkB was also prominently tyrosine phosphorylated (see FIG. 14, 3rd panel).
Target sequence in this assay (Q16620 32-822, species assumed): as above

Assay [3] concerns TrkB. The assay is described as follows: TrkB activation in cortical neurons from knockout mouse pups. The format is cell-based. As for the experimental part: (§1) To determine whether an identified active compound selectively activates TrkB receptor and prevents neuronal cell death, cortical neurons are prepared from homozygous pups of TrkB +/− mice, which are mated to the same genotype. The activation of TrkB and down stream indicators of TrkB activation, such as Capase-3, are monitored. To further assess whether an identified active compound blocks neuronal apoptosis in a TrkB dependent manner, cortical neurons are prepared from homozygous pups of […], which are mated to the same genotype. Again, the activation of TrkB and down stream indicators of TrkB activation, such as Capase-3, are monitored.
(§2) Additionally, the spontaneous caspase-3 activation in […] was suppressed by deoxygedunin.

In a further assay the test system is caspase-3. In words: Caspase-3 activation in cortical neurons from knockout mouse pups. The format is cell-based. As to the method:
as §1, §2

In assay [4] the target is T2, TrkB (Mus musculus, UniProt P15209).
T2 construct: Brain lysates were prepared and analyzed by immunoblotting; from tissue; host or cells: mouse brain
In words: TrkB activation in BDNF cortex conditional knockout mice. The format is in vivo. The note with it: 5 mg/kg i.p., sacrificed at 4 hours; wild-type and BDNF −/− mice. An excerpt: The Cortex-Specific Cre mouse line was previously described as “transgenic line C” (Chhatwal et al., Gene Ther. 14, 575-583 (2007)). Briefly, coding sequence for Cre-recombinase (Cre-IRES-DsRed2) was placed downstream of a 3 kb cholecystokinin (CCK) promoter, linearized, purified, and microinjected into the pronuclei of one-cell C57/BL6 embryos, which were then implanted into pseudopregnant C57/BL6 females. Following verification of gene expression in the different transgenic lines (Chhatwal et al., Nat. Neurosci. 9, 870-872 (2006)), the cortex-specific “line C” was crossed to a floxed-stop lacZ reporter mouse line (Soriano, Nat. Genet., 21, 70-71 (1999)) as well as the floxed BDNF mouse line (Rios et al., Mol. Endocrinol., 15, 1748-1757 (2001)). Region specific Cre gene expression and BDNF deletion were confirmed with in situ hybridization, x-gal staining for β-galactosidase expression, and Western blot for BDNF protein levels.
To examine whether deoxygedunin activating TrkB involved endogenous BDNF, BDNF conditional knockout mice with BDNF gene deletion limited to cortex (thus allowing normal development) were used. Deoxygedunin (5 mg/kg) was intraperitoneally injected into the BDNF cortex conditional knockout mice and the mice were sacrificed at 4 hours. […]

For another assay, the system named is C57BL/6 mice. The assay is described as follows: KA-induced apoptosis in hippocampus (TUNEL staining). The format is in vivo, mouse. The note with it: 5 mg/kg i.p. followed by 20 mg/kg KA, 5 days.
Another assay deals with TrkA (Mus musculus, UniProt Q3UFB7). The assay is described as follows: TrkA activation in cortical neurons from knockout mouse pups. The format is cell-based. More on the design: endogenous in cells; host or cells: primary cortical neurons from mouse pups.
The mark [5] stands for this setting: both wild-type and TrkC knockout neurons.

TrkA, sequence (Q3UFB7 34-799): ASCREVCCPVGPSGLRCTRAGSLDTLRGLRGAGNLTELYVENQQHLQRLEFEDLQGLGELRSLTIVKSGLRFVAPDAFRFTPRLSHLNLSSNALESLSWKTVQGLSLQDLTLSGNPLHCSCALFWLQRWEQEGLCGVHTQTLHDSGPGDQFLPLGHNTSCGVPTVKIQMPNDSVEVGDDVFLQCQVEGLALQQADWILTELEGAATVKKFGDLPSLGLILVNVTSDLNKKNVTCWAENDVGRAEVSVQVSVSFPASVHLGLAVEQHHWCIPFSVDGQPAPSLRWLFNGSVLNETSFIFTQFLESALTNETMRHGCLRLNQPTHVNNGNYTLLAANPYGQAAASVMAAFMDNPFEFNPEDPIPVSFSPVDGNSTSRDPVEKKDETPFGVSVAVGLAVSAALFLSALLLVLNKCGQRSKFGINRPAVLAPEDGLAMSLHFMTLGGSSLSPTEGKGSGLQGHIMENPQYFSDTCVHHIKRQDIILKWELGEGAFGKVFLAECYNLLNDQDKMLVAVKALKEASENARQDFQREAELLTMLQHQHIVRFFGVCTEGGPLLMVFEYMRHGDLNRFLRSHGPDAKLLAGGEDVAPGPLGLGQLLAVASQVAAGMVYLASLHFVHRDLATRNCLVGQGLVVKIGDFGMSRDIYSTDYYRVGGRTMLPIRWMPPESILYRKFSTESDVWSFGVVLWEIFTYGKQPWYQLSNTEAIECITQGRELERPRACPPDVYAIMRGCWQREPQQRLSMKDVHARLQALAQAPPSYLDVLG
T2 sequence (P15209 32-821): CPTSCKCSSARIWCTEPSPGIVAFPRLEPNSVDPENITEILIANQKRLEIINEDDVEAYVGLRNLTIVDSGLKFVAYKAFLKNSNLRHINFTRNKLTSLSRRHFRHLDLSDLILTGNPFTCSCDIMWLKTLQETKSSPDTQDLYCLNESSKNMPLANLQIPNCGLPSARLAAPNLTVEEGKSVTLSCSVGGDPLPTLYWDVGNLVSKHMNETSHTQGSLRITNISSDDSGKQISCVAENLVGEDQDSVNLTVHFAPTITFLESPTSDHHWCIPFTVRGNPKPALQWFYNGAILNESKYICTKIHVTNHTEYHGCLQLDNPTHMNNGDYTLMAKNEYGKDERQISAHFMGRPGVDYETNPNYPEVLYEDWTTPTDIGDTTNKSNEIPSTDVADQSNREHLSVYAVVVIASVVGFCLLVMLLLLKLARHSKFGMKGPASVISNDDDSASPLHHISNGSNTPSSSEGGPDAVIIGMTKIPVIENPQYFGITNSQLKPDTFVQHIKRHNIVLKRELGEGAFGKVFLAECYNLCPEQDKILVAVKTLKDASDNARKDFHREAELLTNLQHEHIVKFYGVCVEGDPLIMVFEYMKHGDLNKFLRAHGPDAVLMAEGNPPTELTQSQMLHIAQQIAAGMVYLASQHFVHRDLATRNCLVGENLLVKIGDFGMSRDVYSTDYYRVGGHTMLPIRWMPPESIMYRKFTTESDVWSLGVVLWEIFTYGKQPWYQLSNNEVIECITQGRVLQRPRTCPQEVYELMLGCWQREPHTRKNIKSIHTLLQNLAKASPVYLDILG

Turning to `CC(=O)O[C@@H]1C[C@H]2C(C)(C)C(=O)C=C[C@]2(C)[C@H]2CC[C@]3(C)C(=CC(=O)O[C@H]3c3ccoc3)[C@@]21C` [deoxygedunin], the TrkB dimerization entry at TrkB [1] is “robustly provoked TrkB dimerization with an effect even stronger than BDNF”. Moreover, the “tyrosine phosphorylation in TrkB” value on TrkB [2] is listed as “elicited tyrosine phosphorylation in TrkB”. Further, the TrkB activation entry with TrkB [3] (TrkB −/− cortical neurons) was “not TrkB −/− neurons”; in the assay on TrkB [3] (setting [5]) it was “strongly provoked TrkB”; in the assay on TrkB [3] (wild-type cortical neurons (pups of TrkB +/− mice)), “specifically activated TrkB”; at TrkB [4], “TrkB activation occurred in both wild-type and BDNF −/− mice”. The “blockade of glutamate-provoked caspase-3 activation” value in the assay on caspase-3 (TrkB −/− cortical neurons) is “not TrkB −/− neurons”; with caspase-3 (wild-type cortical neurons), “substantially blocked”. Moreover, the “spontaneous caspase-3 activation” value with caspase-3 (TrkC −/− neurons) is recorded as “suppressed”. Besides, in the assay with caspase-3 (wild-type and TrkC knockout neuron experiment), the “glutamate triggered caspase-3 activation” value is recorded as “diminished”. Besides, the “KA provoked apoptosis in the hippocampus (TUNEL staining)” value in the assay with C57BL/6 mice is reported as “diminished”. Also, the “decrease of KA induced apoptosis in hippocampus” value in the assay on C57BL/6 mice came to 60%. Also, the TrkA activation result at TrkA (setting [5]) is “not TrkA activation”; on TrkA (cortical neurons (pups of TrkB +/− mice)) it was “not TrkA receptor”.
